We go through 35 compounds from patent US8778966B2, “Quinolinone derivatives as PARP and tank inhibitors” (Janssen Pharmaceutica, NV, priority 2007, dated 2014).

SMILES strings stand for the structures.

Assay [1] concerns the target T1, Human PARP-1 enzyme (Homo sapiens, UniProt P09874).
T1 construct: purchased Trevigen
Kind of assay: In vitro Scintillation Proximity Assay (SPA) for PARP-1 inhibitory activity. The class given is biochemical. Conditions: read-out: in vitro SPA assay PARP-1 pIC50 (converted). A digest of the protocol: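 SPA assay: nicked-DNA-activated PARP-1 (0.1–0.2 μg/ml) ADP-ribosylates biotinylated histones (2 μg/ml) using [3H]-NAD+, 20 min at RT in Tris pH 8/DTT/MgCl2, stopped with 2 mM NAD+. Blank-subtracted cpm expressed as % control; IC50 by linear interpolation, reported as pIC50 (10−5 to 3×10−9 M tested).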

In assay [2] the test system is PC-3 cells. Kind of assay: Antiproliferative activity, Alamar Blue assay, PC-3 cells. Conditions: Homo sapiens, PC-3, PC3 cells; read-out: PC3 antiproliferative activity pIC50 (converted). The class given is cell-based, human. A digest of the protocol:
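Resazurin-based fluorescence (540 nm ex/590 nm em) measured after 4-day compound treatment plus 24 hrs dye incubation at 37° C. Cells plated at 4.5×10^3 cells/ml, adhered 24 hr first. pIC50 from probit-derived IC50 on % viable cells versus untreated, triplicate wells.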

T1 sequence (P09874 whole entry): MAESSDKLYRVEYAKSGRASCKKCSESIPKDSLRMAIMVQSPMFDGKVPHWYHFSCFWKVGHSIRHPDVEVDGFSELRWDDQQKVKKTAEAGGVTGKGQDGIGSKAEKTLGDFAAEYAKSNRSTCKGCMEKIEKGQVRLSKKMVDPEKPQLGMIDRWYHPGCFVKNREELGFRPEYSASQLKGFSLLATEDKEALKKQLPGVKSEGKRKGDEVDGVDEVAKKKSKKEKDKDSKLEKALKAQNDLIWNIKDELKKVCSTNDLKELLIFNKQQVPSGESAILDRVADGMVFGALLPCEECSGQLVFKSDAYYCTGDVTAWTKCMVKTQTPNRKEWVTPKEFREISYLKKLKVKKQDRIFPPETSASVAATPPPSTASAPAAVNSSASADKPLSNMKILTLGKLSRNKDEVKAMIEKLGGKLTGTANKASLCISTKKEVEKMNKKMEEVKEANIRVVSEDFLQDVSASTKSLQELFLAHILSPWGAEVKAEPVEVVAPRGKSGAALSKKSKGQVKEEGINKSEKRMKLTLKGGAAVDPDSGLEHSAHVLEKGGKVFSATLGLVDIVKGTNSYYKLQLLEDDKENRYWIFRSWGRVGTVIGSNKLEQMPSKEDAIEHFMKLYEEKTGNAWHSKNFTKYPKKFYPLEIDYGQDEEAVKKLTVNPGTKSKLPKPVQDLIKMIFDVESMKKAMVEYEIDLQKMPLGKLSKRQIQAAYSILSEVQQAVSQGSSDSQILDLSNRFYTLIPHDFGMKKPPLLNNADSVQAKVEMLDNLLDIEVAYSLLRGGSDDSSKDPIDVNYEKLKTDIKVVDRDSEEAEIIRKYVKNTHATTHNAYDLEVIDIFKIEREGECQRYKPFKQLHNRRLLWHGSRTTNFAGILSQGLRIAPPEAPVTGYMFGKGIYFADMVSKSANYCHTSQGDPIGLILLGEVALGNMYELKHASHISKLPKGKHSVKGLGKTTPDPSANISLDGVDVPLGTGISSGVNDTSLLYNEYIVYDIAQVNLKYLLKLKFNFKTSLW

With `CCc1cc2ccc(C(C)(C#N)Cc3c(F)cccc3F)cc2[nH]c1=O` (stereo not shown) [Compound 138], the IC50 was 1260 nM in assay [1] and 1000 nM in assay [2].
For `CCc1cc2ccc(C(C)(C#N)Cc3ccc(F)cc3Br)cc2[nH]c1=O` (stereo not shown) [Compound 139], the IC50 was 1260 nM in assay [1] and 794 nM in assay [2].
Regarding `CCc1cc2ccc(C(C)(C#N)Cc3cccc(Cl)c3)cc2[nH]c1=O` (stereo not shown) [Compound 140], the IC50 in assay [1] and in assay [2] was 631 nM throughout.
With `CCc1cc2ccc(C(C)(C#N)Cc3cc(Cl)cc(Cl)c3)cc2[nH]c1=O` (stereo not shown) [Compound 141], the results for the IC50 in assay [1] and in assay [2] were 1000 nM and 79.4 nM, respectively.
On to `CCOc1ccccc1OCCC(C)(C#N)c1ccc2cc(CC)c(=O)[nH]c2c1` (stereo not shown) [Compound 142], for which the IC50 in assay [1] is 631 nM; in assay [2], 316 nM.
For the compound `CCc1cc2ccc(C(C)(C#N)CCOc3cccc(C)c3)cc2[nH]c1=O` (stereo not shown) [Compound 143], the IC50 in assay [1] and in assay [2] was 794 nM each time.
As for `CCc1cc2ccc(C(C)(C#N)CCOc3ccc(F)cc3)cc2[nH]c1=O` (stereo not shown) [Compound 144], the IC50 was 251 nM in assay [1] and 631 nM in assay [2].
For the compound `CCc1cc2ccc(C(C)(C#N)CCOc3ccccc3)cc2[nH]c1=O` (stereo not shown) [Compound 145], the results for the IC50 in assay [1] and in assay [2] were 200 nM and 501 nM, respectively.
With `CCc1cc2ccc(C(C)(C#N)CCOc3ccc(Cl)cc3)cc2[nH]c1=O` (stereo not shown) [Compound 146], the IC50 in assay [1] was 398 nM; in assay [2], 501 nM.
Take `CCc1cc2ccc(C(C)(C#N)CCOc3ccc(OC)cc3)cc2[nH]c1=O` (stereo not shown) [Compound 147]: the figures for the IC50 in assay [1] and in assay [2] were 158 nM and 794 nM, respectively.
Regarding `CCc1cc2ccc(C(C)(C#N)CCOc3ccccc3C)cc2[nH]c1=O` (stereo not shown) [Compound 148], the IC50 is 316 nM in assay [1] and 794 nM in assay [2].
With `CCc1cc2ccc(C(C)(C#N)CCOc3ccc(C)cc3)cc2[nH]c1=O` (stereo not shown) [Compound 149], the values for the IC50 in assay [1] and in assay [2] were 398 nM and 1000 nM, respectively.
Take `CCc1cc2ccc(C(C)(C#N)CCOc3cccc(Cl)c3)cc2[nH]c1=O` (stereo not shown) [Compound 151]: the values for the IC50 in assay [1] and in assay [2] were 501 nM and 2000 nM, respectively.
Take `CCc1cc2ccc(C(C)(C#N)CCOc3ccccc3Cl)cc2[nH]c1=O` (stereo not shown) [Compound 152]: the IC50 in assay [1] is 398 nM; in assay [2] it was 1580 nM.
Regarding `CCc1cc2ccc(C(C)(C#N)CCOc3ccccc3Br)cc2[nH]c1=O` (stereo not shown) [Compound 153], the figures for the IC50 in assay [1] and in assay [2] were 316 nM and 631 nM, respectively.
In the same order, the values of `CCc1cc2ccc(C(C)(C#N)CCOc3ccc(Cl)cc3Cl)cc2[nH]c1=O` (stereo not shown) [Compound 154] are 1260 nM and 398 nM.
With `CCc1cc2ccc(C(C)(C#N)CCOc3ccc(SC)cc3)cc2[nH]c1=O` (stereo not shown) [Compound 155], the IC50 in assay [1] was 501 nM; in assay [2], 1580 nM.
Regarding `CCc1cc2ccc(C(C)(C#N)CC3CN(C)c4ccccc4O3)cc2[nH]c1=O` (stereo not shown) [Compound 156], the IC50 in assay [1] is 316 nM; in assay [2], 2510 nM.
For `CCc1cc2ccc(C(C)(C#N)CCOc3ccc4ccccc4c3)cc2[nH]c1=O` (stereo not shown) [Compound 157], in that order: 1580 nM and 1000 nM.
On to `CCc1cc2ccc(C(C)(C#N)CCOc3cccc4ccccc34)cc2[nH]c1=O` (stereo not shown) [Compound 158], for which the figures for the IC50 in assay [1] and in assay [2] were 1580 nM and 794 nM, respectively.
For `CCc1cc2ccc(C(C)(C#N)CCOc3ccccc3C(C)=O)cc2[nH]c1=O` (stereo not shown) [Compound 159], in that order: 251 nM and over 10000 nM.
As to `CCc1cc2ccc(C(C)(C#N)CCOc3ccc(Br)cc3)cc2[nH]c1=O` (stereo not shown) [Compound 160], the IC50 in assay [1] was 794 nM; in assay [2], 1260 nM.
As to `CCc1cc2ccc(C(C)(C#N)CCOc3ccc(C#N)cc3)cc2[nH]c1=O` (stereo not shown) [Compound 161], the IC50 in assay [1] was 251 nM; in assay [2], 501 nM.
With `CCc1cc2ccc(C(C)(C#N)CCOc3ccc4oc(C)c(C)c4c3)cc2[nH]c1=O` (stereo not shown) [Compound 162], the results for the IC50 in assay [1] and in assay [2] were 1000 nM and over 10000 nM, respectively.
`CCc1cc2ccc(C(C)(C#N)CCOc3cccc4c3OCCO4)cc2[nH]c1=O` (stereo not shown) [Compound 163]: the figures for the IC50 in assay [1] and in assay [2] were 1260 nM and 1000 nM, respectively.
For `CCc1cc2ccc(C(C)(C#N)Cc3cccc(CCC#N)c3)cc2[nH]c1=O` (stereo not shown) [Compound 165], in that order: 251 nM and 1000 nM.
In the case of `CCc1cc2ccc(C(C#N)(CCOc3ccccc3)C3CC3)cc2[nH]c1=O` (stereo not shown) [Compound 166], the IC50 in assay [1] was 501 nM; in assay [2] it was 7940 nM.
For `CCc1cc2ccc(C(C)(C#N)CCOc3ccc(C(C)(C)C)cc3)cc2[nH]c1=O` (stereo not shown) [Compound 167], in that order: 1580 nM and 7940 nM.
Regarding `CCc1cc2ccc(C(C)(C#N)CC#Cc3cccc(F)c3)cc2[nH]c1=O` (stereo not shown) [Compound 184], the results for the IC50 in assay [1] and in assay [2] were 100 nM and 3980 nM, respectively.
Take `Cc1cc2ccc([C@@](C)(C#N)[C@@H]3CCc4cc(C#N)ccc43)cc2[nH]c1=O` [Compound 245]: the IC50 in assay [1] was 200 nM; in assay [2], 7940 nM.
With `CCc1cc2ccc([C@](C)(C#N)C[C@@H]3CCc4cc(C)ccc4O3)cc2[nH]c1=O` [Compound 251], the values for the IC50 in assay [1] and in assay [2] were 200 nM and 1000 nM, respectively.
For `CCc1cc2ccc([C@@](C)(C#N)C[C@@H]3CCc4cc(C)ccc4O3)cc2[nH]c1=O` [Compound 252], the IC50 was 200 nM in assay [1] and 251 nM in assay [2].
In the case of `CCc1cc2ccc(C(C#N)(CC)CCOc3ccc(C#N)cc3)cc2[nH]c1=O` (stereo not shown) [Compound 271], the values for the IC50 in assay [1] and in assay [2] were 100 nM and 2510 nM, respectively.
`Cc1cc2ccc([C@@](C)(C#N)[C@H]3CCc4cc(C#N)ccc43)cc2[nH]c1=O` [Compound 389]: the IC50 in assay [1] and in assay [2] was 200 nM each time.
`CCc1cc2ccc(C(C#N)(CC)C3CCc4ccc(F)cc43)cc2[nH]c1=O` (stereo not shown) [Compound 391]: the IC50 in assay [1] is 200 nM; in assay [2], 794 nM.
